The source of these data is patent publication US11976083B2, “Inhibitors of peptidylarginine deiminases” (Gilead Sciences, Inc., priority 2020, dated 2024).

In this assay the target is T1, human PAD4 (Homo sapiens, UniProt Q9UM07).
T1 construct: human PAD4 (NM_012387), A2-P663, was PCR amplified; His-SUMO (N, cleaved yes); made in house; host or cells: E. coli BL21(DE3)
Nature of the assay: In vitro PAD4 BAEE biochemical assay. Particulars: BAEE substrate 3 mM, 5 nM PAD4, 2 mM calcium chloride; geometric mean of multiple experiments. The method in brief: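 Ammonia produced by BAEE deimination (3 mM substrate, 2 h, 25 °C) was read as fluorescent isoindole after o-phthalaldehyde/DTT derivatization, ex 405 nm/em 535 nm. Human PAD4 at 5 nM final, 2 mM calcium, pH 7.6 MOPS; compound preincubated 30 min. IC50s, normalized to BB-Cl-Amidine and DMSO controls, were geometric-mean averaged.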

T1 sequence (Q9UM07 2-663): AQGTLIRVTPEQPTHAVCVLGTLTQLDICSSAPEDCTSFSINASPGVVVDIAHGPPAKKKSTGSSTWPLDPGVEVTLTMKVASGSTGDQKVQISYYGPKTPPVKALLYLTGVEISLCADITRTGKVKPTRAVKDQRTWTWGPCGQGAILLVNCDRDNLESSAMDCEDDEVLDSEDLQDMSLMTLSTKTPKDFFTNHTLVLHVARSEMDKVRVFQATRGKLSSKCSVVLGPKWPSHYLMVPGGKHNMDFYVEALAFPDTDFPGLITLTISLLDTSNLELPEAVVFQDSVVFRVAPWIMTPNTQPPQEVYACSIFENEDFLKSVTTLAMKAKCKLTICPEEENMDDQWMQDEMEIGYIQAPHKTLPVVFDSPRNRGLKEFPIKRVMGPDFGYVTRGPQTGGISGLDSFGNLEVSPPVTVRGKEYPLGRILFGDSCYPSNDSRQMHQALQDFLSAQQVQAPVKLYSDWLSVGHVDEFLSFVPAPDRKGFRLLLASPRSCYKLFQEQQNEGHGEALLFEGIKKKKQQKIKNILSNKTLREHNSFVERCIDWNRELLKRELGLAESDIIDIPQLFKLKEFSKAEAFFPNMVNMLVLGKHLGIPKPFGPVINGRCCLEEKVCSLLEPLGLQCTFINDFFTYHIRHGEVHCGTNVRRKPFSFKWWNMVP

For orientation: IC50 means the point on the concentration scale where inhibition reaches its midpoint. Consider `COc1cc(C(=O)N2CC[C@@H](OC)[C@@H](N)C2)cc2nc(-c3cc4ccc5nc4n3CCC/C=C/[C@@H]3C[C@@]3(C(F)(F)F)C(=O)N[C@@H]5C)n(C)c12` [Example 635, (2~{R},5~{S},7~{S},8~{E})-14-[5-[(3~{S},4~{R})-3-amino-4-methoxy-piperidine-1-carbonyl]-7-methoxy-1-methyl-benzimidazol-2-yl]-2-methyl-5-(trifluoromethyl)-3,13,19-triazatetracyclo[11.5.2.0^ {5,7}.0^{16,20}] icosa-1(19),8,14,16(20), 17-pentaen-4-one], for which the IC50 came out at 682 nM.

As for `COc1cc(C(=O)N2[C@H]3CC[C@@H]2[C@H](N)C3)cc2nc(-c3cc4ccc5nc4n3CCCCOCC(=O)N[C@@H]5C)c(C)n12` [Example 324, (10~{R})-16-[7-[(1~{R},2~{R},4~{S})-2-amino-7-azabicyclo[2.2.1]heptane-7-carbonyl]-5-methoxy-3-methyl-imidazo[1,2-a]pyridin-2-yl]-10-methyl-6-oxa-1,9,18-triazatricyclo[9.5.2.0^{14,17}]octadeca-11(18),12,14(17),15-tetraen-8-one], the IC50 is 36 nM.

Consider `COc1cc(C(=O)N2C[C@H]3CC[C@@H]2[C@@H]3N)cc2nc(-c3cc4ccc5nc4n3CCCCCc3cncc(F)c3C(=O)N[C@@H]5C)n(C)c12` [Example 658, (2~{R})-17-[5-[(1~{R},4~ {R},7~{R})-7-amino-2-azabicyclo[2.2.1]heptane-2-carbonyl]-7-methoxy-1-methyl-benzimidazol-2-yl]-6-fluoro-2-methyl-3,8,16,22-tetrazatetracyclo[14.5.2.0^ {5,10).0^{19,23}] tricosa-1(22),5,7,9,17,19(23), 20-heptaen-4-one], for which the 50% inhibitory concentration (IC50) is 25 nM.

`C[C@H]1NC(=O)[C@@H]2C[C@H]2CCCC(F)(F)Cn2c(-c3nc4cc(C(=O)N5C[C@H](N)[C@@H]6CC[C@H]5C6)ccc4n3C3CC3)cc3ccc1nc32` [Example 914, (2~{R},5~{R},7~{R})-14-[5-[(1~{S},4~{R},5~{R})-4-amino-2-azabicyclo[3.2.1]octane-2-carbonyl]-1-cyclopropyl-benzimidazol-2-yl]-11,11-difluoro-2-methyl-3,13,19-triazatetracyclo[11.5.2.0^ {5,7}.0^{16,20}]icosa-1(19), 14,16(20),17-tetraen-4-one]: the IC50 turned out to be 16 nM.

For `C[C@H]1NC(=O)c2ccc(Cl)nc2CCCCCn2c(-c3nc4cc(C(=O)N5C[C@H](N)[C@@H]6CC[C@H]5C6)cc(OC(F)F)c4n3C3CC3)cc3ccc1nc32` [Example 760, (2~{R})-17-[5-[(1~{S},4~{R}, 5~{R})-4-amino-2-azabicyclo [3.2.1]octane-2-carbonyl]-1-cyclopropyl-7-(difluoromethoxy)benzimidazol-2-yl]-8-chloro-2-methyl-3,9,16,22-tetrazatetracyclo [14.5.2.0^{5,10}.0^{19,23}] tricosa-1(22),5(10), 6,8,17,19(23),20-heptaen-4-one], the IC50 stood at 70 nM.

As for `COc1cc(C(=O)N2C[C@@H]3NCCO[C@@H]3C[C@@H]2C)cc2nc(-c3cc4ccc5nc4n3CC(F)(F)CCC[C@@H]3C[C@H]3C(=O)N[C@@H]5C)n(C)c12` [Example 801, (2~{R},5~{R},7~{R})-14-[5-[(4~{a}~{S),7~{S},8~{a}~ {R})-7-methyl-2,3,4,4~{a}, 5,7,8,8~{a}-octahydropyrido [4,3-b][1,4]oxazine-6-carbonyl]-7-methoxy-1-methyl-benzimidazol-2-yl]-11,11-difluoro-2-methyl-3,13,19-triazatetracyclo[11.5.2.0^ {5,7}.0^{16,20}]icosa-1(18),14,16,19-tetraen-4-one], the IC50 worked out at 334 nM.

As for `COc1cc(C(=O)N2C[C@H](N)[C@@H]3CC[C@H]2C3)cc2nc(-c3cc4ccc5nc4n3CCCCC[C@]3(F)C[C@H]3C(=O)N[C@@H]5C)n(C3CC3)c12` [Example 816, (2~{R},5~{S},7~{S})-14-[5-[(1~{S},4~{R},5~{R})-4-amino-2-azabicyclo[3.2.1]octane-2-carbonyl]-1-cyclopropyl-7-methoxy-benzimidazol-2-yl]-7-fluoro-2-methyl-3,13,19-triazatetracyclo[11.5.2.0^ {5,7}.0^{16,20}]icosa-1 (18),14,16,19-tetraen-4-one], the IC50 turned out to be 19 nM.

With `COc1cc(C(=O)N2C[C@H](N)[C@@H]3CC[C@H]2C3)cc2nc(-c3cc4ccc5nc4n3CCCCCC[C@@](F)(c3ccccn3)C(=O)N[C@@H]5C)n(C3CC3)c12` (single isomer, unassigned) [Example 944, (8˜{R},11˜{R})-17-[5-[(1˜{S},4˜{R},5˜{R})-4-amino-2-azabicyclo[3.2.1]octane-2-carbonyl]-1-cyclopropyl-7-methoxy-benzimidazol-2-yl]-8-fluoro-11-methyl-8-(2-pyridyl)-1,10,19-triazatricyclo[10.5.2.0^{15,18}]nonadeca-12(19),13,15(18),16-tetraen-9-one], the IC50 is 64 nM.

`COc1cc(C(=O)N[C@H]2CNCC[C@@H]2F)cc2nc(-c3cc4ccc5nc4n3CCCCCC[C@@H](OC)C(=O)N[C@@H]5C)n(C)c12` [Example 621, ~{N}-[(3~{S},4~{S})-4-fluoro-3-piperidyl]-7-methoxy-2-[(8~{R},11~ {R})-8-methoxy-11-methyl-9-oxo-1,10,19-triazatricyclo[10.5.2.0^ {15,18}]nonadeca-12(19),13,15(18),16-tetraen-17-yl]-1-methyl-benzimidazole-5-carboxamide]: the IC50 amounted to 43 nM.

On to `COc1cc(C(=O)N2CC[C@@H](OC)[C@@H](N)C2)cc2nc(-c3cc4ccc5nc4n3CCCCCc3nc(Cl)ccc3C(=O)N[C@@H]5C)n(C)c12` [Example 407, (2~{R})-17-[5-[(3~{S},4~{R})-3-amino-4-methoxy-piperidine-1-carbonyl]-7-methoxy-1-methyl-benzimidazol-2-yl]-8-chloro-2-methyl-3,9,16,22-tetrazatetracyclo[14.5.2.0^{5,10).0^{19,23}] tricosa-1(22),5(10),6,8,17,19(23),20-heptaen-4-one], for which the half-maximal inhibitory concentration (IC50) turned out to be 70 nM.

For the molecule `COc1cc(C(=O)N2CCC[C@@H](N)[C@H]2C)cc2nc(-c3cc4ccc5nc4n3CCCCCc3cncc(F)c3C(=O)N[C@@H]5C)n(C)c12` [Example 657, (2~{R})-17-[5-[(2~{R},3~{R})-3-amino-2-methyl-piperidine-1-carbonyl]-7-methoxy-1-methyl-benzimidazol-2-yl]-6-fluoro-2-methyl-3,8,16,22-tetrazatetracyclo [14.5.2.0^{5,10}.0^{19,23}] tricosa-1(22),5,7,9,17,19(23), 20-heptaen-4-one], the 50% inhibitory concentration (IC50) is 14 nM.

With `COc1cc(C(=O)N2CCC[C@@H](N)[C@H]2C)cc2nc(-c3cc4ccc5nc4n3CCCCCc3nccnc3C(=O)N[C@@H]5C)n(C)c12` [Example 528, (2~{R})-17-[5-[(2~ {R},3~{R})-3-amino-2-methyl-piperidine-1-carbonyl]-7-methoxy-1-methyl-benzimidazol-2-yl]-2-methyl-3,6,9,16,22-pentazatetracyclo [14.5.2.0^{5,10}.0^{19, 23}]tricosa-1(22),5(10), 6,8,17,19(23),20-heptaen-4-one], the concentration for half-maximal inhibition (IC50) was 55 nM.

Consider `COc1cc(C(=O)N2CC[C@@H](OC)[C@@H](N)C2)cc2nc(-c3cc4ccc5nc4n3CCCCCc3nc4ccsc4cc3C(=O)N[C@@H]5C)n(C)c12` [Example 788, (2~{R})-20-[5-[(3~{S),4~{R})-3-amino-4-methoxy-piperidine-1-carbonyl]-7-methoxy-1-methyl-benzimidazol-2-yl]-2-methyl-8-thia-3,12,19,25-tetrazapentacyclo[17.5.2.0^ {5,13).0^{7,11}.0^{22,26}] hexacosa-1(24),5(13), 6,9,11,20,22,25-octaen-4-one], for which the 50% inhibitory concentration (IC50) amounted to 35 nM.

For the molecule `C[C@H]1NC(=O)[C@@H]2C[C@H]2CCCC(F)(F)Cn2c(-c3nc4cc(C(=O)N5C[C@H](N)C[C@@H](F)C5)cc(F)c4n3C3CC3)cc3ccc1nc32` [Example 640, (2~{R},5~{R},7~{R})-14-[5-[(3~{R},5~{R})-3-amino-5-fluoro-piperidine-1-carbonyl]-1-cyclopropyl-7-fluoro-benzimidazol-2-yl]-11,11-difluoro-2-methyl-3,13,19-triazatetracyclo[11.5.2.0^ {5,7}.0^{16,20}]icosa-1(19),14,16(20),17-tetraen-4-one], the IC50 worked out at 24 nM.

In the case of `CO[C@@H]1CCN(C(=O)c2cc(F)c3c(c2)nc(-c2cc4ccc5nc4n2CCCCCc2nc4ccccc4cc2C(=O)N(C)[C@@H]5C)n3C2CC2)C[C@@H]1N` [Example 833, (2~{R})-21-[5-[(3~{S},4~ {R})-3-amino-4-methoxy-piperidine-1-carbonyl]-1-cyclopropyl-7-fluoro-benzimidazol-2-yl]-2,3-dimethyl-3,13,20,26-tetrazapentacyclo[18.5.2.0^ {5,14).0^{7,12}.0^ {23,27}]heptacosa-1(26),5(14),6,8,10,12, 21,23(27),24-nonaen-4-one], the IC50 worked out at 61 nM.

As to `COc1cc(C(=O)N2[C@H]3CC[C@@H]2[C@H](N)C3)cc2nc(-c3cc4ccc5nc4n3C[C@H]3C[C@@H]3COCCC(=O)N[C@@H]5C)n(C)c12` [Example 217, (3~{S},5~{S},12~{R})-18-[5-[(1~{R},2~{R},4~{S})-2-amino-7-azabicyclo[2.2.1]heptane-7-carbonyl]-7-methoxy-1-methyl-benzimidazol-2-yl]-12-methyl-7-oxa-1,11,20-triazatetracyclo[11.5.2.0^{3,5}.0^{16,19}] icosa-13(20),14,16(19),17-tetraen-10-one], the IC50 worked out at 32 nM.

For the molecule `CC(C)n1c(-c2cc3ccc4nc3n2CCCCCc2nc(Cl)ccc2C(=O)N[C@@H]4C)nc2cc(C(=O)N3C[C@H](N)[C@@H]4CC[C@H]3C4)cc(F)c21` [Example 946, (2~{R})-17-[5-[(1~{S},4~ {R},5~{R})-4-amino-2-azabicyclo [3.2.1]octane-2-carbonyl]-7-fluoro-1-isopropyl-benzimidazol-2-yl]-8-chloro-2-methyl-3,9,16,22-tetrazatetracyclo[14.5.2.0^ {5,10}.0^{19,23}]tricosa-1(22),5(10),6,8,17,19(23),20-heptaen-4-one], the half-maximal inhibitory concentration (IC50) was determined as 69 nM.
